Here are results for one compound from publication PMC6468747 (Cancers, 2019).

One assay deals with MDA-MB-436 (MSL). In words: MTT cell growth assay, 7 days. The assay is classed as cell-based. Conditions: Homo sapiens, MDA-MB-436, 168 h. On the procedure: (§1) Figure 3 In vitro characterization, pharmacokinetics and toxicity profile of VNLG-152R and its two enantiomers. (A) HPLC chromatograms racemic VNLG-152R (left panel) and the resolved enantiomers VNLG-152E1 and VNLG-152E2 (right panel). The conditions of HPLC procedure are presented in Supplementary Materials. (B) Table summarizing GI50 values (µM) each cell line treated with VNLG-152R and its enantiomers. TNBC cell subtypes were treated with listed compound (0.1 nmol/L–100 µmol/L) for 7 days and the GI50 values for the anti-proliferative effects of the compounds were determined from dose response curves (by a nonlinear regression analysis using Graph Pad Prism). Data represents the results from six independent experiments for each cell line. (C) Plasma concentration versus time profile after intravenous (IV, 2 mg/kg each, top panel) or oral (PO, 20 mg/kg each, bottom panel) of VNLG-152R (red), VNLG-152E1 (purple) and VNLG-152E2 (blue) to female CD1 mice. Values represent the mean plasma concentrations from three mice per time point. (D) Table of the pharmacokinetic parameters of various compounds after IV and PO dosing. AUC = area under the curve, T1/2 = elimination half-life, Cmax = maximum plasma concentration, F (%) = oral bioavailability. (E) Effects of VNLG-152R, VNLG-152E1 and VNLG-152E2 on body weight and clinical observations at chronic dose termination of study. Three different doses, i.e., 10, 25, and 50 mg/kg/day (formulated in 40% β-cyclodextrin in saline) of each compound were administered daily by oral gavage for 14 days. Each group consisted of three mice. Loss in body weight, a clinical sign of toxicity was observed during the 14 days of dosing and the maximum tolerated dose (MTD) was estimated following established procedures. Changes in body weight were scored on a scale of 0–4 as follows as described under methods. […]

For another assay, the system named is MFM-223 (LAR). In words: MTT cell growth assay, 7 days. The assay is classed as cell-based. Conditions: Homo sapiens, MFM-223, 168 h. As for the experimental part:
as §1

The GI50 is the concentration that inhibits growth by half.

In the case of `CC1=C(/C=C/C(C)=C/C=C/C(C)=C/C(=O)Nc2ccc(F)cc2)C(C)(C)CCC1n1ccnc1` (racemic) [VNLG-152R, 4-(±)-(1H-imidazol-1-yl)-N-(4-fluorophenyl)-(E)-retinamide], the GI50 stood at 0.89 ± 0.03 µM in the assay on MDA-MB-436 (MSL) and 1.86 ± 0.12 µM with MFM-223 (LAR).
